{
  "source": "patent US20090047243A1",
  "about": "“COMBINATIONS FOR THE TREATMENT OF B-CELL PROLIFERATIVE DISORDERS” (priority 2007, published 2009)",
  "key": {"[1]": {"tested_on": "phosphodiesterase (PDE) types", "conditions": "PDE type(s) in brackets after the name; cited from earlier work"}, "[2]": {"tested_on": "RPMI-8226 multiple myeloma cell line", "test": "Anti-proliferation assay (ATPLite, 72 h)", "format": "cell-based, human", "parameters": "key: S = lnfX·lnfY·ΣIdata(Idata−ILoewe), volume over Loewe additivity", "in_short": "(§1)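 Percent inhibition, calculated against averaged untreated wells, derives from ATPLite luminescence. Dose-response curves spanned 12 concentrations in 2- or 3-fold steps. IL-6 at 10 ng/ml was added to the ANBL6 culture medium.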"}, "[3]": {"tested_on": "H929 multiple myeloma cell line", "test": "Anti-proliferation assay (ATPLite, 72 h)", "format": "cell-based, human", "parameters": "key: S = lnfX·lnfY·ΣIdata(Idata−ILoewe), volume over Loewe additivity", "in_short": "as §1"}, "[4]": {"tested_on": "human multiple myeloma cells (MM.1R)", "test": "Anti-proliferation assay (ATPLite, 72 h)", "format": "cell-based", "parameters": "key: S = lnfX·lnfY·ΣIdata(Idata−ILoewe), volume over Loewe additivity", "in_short": "as §1"}, "patient CLL cells": {"tested_on": "patient CLL cells", "test": "Apoptosis assay (Hoechst 33342, flow cytometry, 48 h)", "format": "cell-based, human", "parameters": "unit not given here", "conditions": "CGS-21680 0 μM", "text": "Blood samples were obtained in heparinized tubes with IRB-approved consent from flow cytometry-confirmed B-CLL patients that were either untreated or for whom at least 1 month had elapsed since chemotherapy. Patients with active infections or other serious medical conditions were not included in this study. Patients with white blood cell counts of less than 15,000/μl by automated analysis were excluded from this study. Whole blood was layered on Ficoll-Hystopaque (Sigma), and peripheral blood mononuclear cells (PBMC) isolated after centrification. […] One million cells were stained with anti-CD5-PE and anti-CD19-PE-Cy5 (Becton Dickenson, Franklin Lakes N.J.). The percentage of B-CLL cells was defined as the percentage of cells doubly expressing CD5 and CDl9, as determined by flow cytometry. […] Compound master plates were diluted 1:50 into complete media to create working compound dilutions. Compound crosses were then created by diluting two working dilution plates 1:10 into each plate of cells. […] Hoechst 33342 (Molecular Probes, Eugene Oreg.) at a final concentration of 0.25 μg/1 mL was added to each well, and the cells incubated at 37° C. for an additional ten minutes before being placed on ice until analysis. Plates were then analyzed on a LSR-II flow cytometer (Becton Dickenson, Franklin Lakes, N.J.) equipped with the High Throughput Sampling (HTS) option in high throughput mode. […] The apoptotic fraction was calculated using FlowJo software (Tree Star Inc., Ashland, Oreg.) after excluding debris by a FSC/SSC gate and subsequently gating for cells that accumulate the Hoechst dye."}, "INA-6 MM cell line": {"tested_on": "INA-6 MM cell line", "test": "Anti-proliferation assay (ATPLite, 72 h)", "format": "cell-based, human", "conditions": "CGS-21680 × PDE inhibitor", "method": "(§2) ANBL6 and INA-6 culture media was also supplemented with 10 ng/ml IL-6. […] MM.1S, MM.1R, OCI-ly10, Karpas 422, and SU-DHL6 cells were provided by the Dana Farber Cancer Institute. H929, RPMI-8226, GA-10, and Farage cells were from ATCC (Cat #'s CCL-155, CRL-9068, CRL-2392 and CRL-2630 respectively). MOLP-8, EJM, KSM-12-PE, and OPM2 were from DSMZ. The ANBL6 and INA-6 cell lines were provided by the M. D. Anderson Cancer Research Center. Compounds were prepared in DMSO at 1000× the highest desired concentration. Master plates were generated consisting of serially diluted compounds in 2- or 3-fold dilutions in 384-well format. For single agent dose response curves, the master plates consisted of 9 individual compounds at 12 concentrations in 2- or 3-fold dilutions. For combination matrices, master plates consisted of individual compounds at 6 or 9 concentrations at 2- or 3-fold dilutions. […] To obtain combination data, two master plates were diluted into the assay plates. […] Thirty microliters of ATPLite (Perkin Elmer) at room temperature was then added to each well. […] Measurements were taken at the top of the well using a luminescence aperture and a read time of 0.1 seconds per well. The percent inhibition (% I) for each well was calculated using the following formula: % I=[(avg. untreated wells-treated well)/(avg. untreated wells)]×100. […] Negative inhibition values result from local variations in treated wells as compared to untreated wells. […] The uncertainty of each fitted parameter was estimated from the range over which the change in reduced chi-squared was less than one, or less than minimum reduced chi-squared if that minimum exceeded one, to allow for underestimated σI errors. Single agent curve data were used to define a dilution series for each compound to be used for combination screening in a 6×6 matrix format. […] The Loewe additivity model was used to quantify combination effects. […] A “Synergy Score” was also used, where the Synergy Score S=log fX log fY ΣIdata(Idata-ILoewe), summed over all non-single-agent concentration pairs, and where log fX,Y is the natural logarithm of the dilution factors used for each single agent. This effectively calculates a volume between the measured and Loewe additive response surfaces, weighted towards high inhibition and corrected for varying dilution factors. An uncertainty σS was calculated for each synergy score, based on the measured errors for the Idata values and standard error propagation."}, "OPM2 MM cell line": {"tested_on": "OPM2 MM cell line", "test": "Anti-proliferation assay (ATPLite, 72 h)", "format": "cell-based, human", "conditions": "CGS-21680 × PDE inhibitor", "method": "as §2"}, "KSM-12-PE MM cell line": {"tested_on": "KSM-12-PE MM cell line", "test": "Anti-proliferation assay (ATPLite, 72 h)", "format": "cell-based, human", "conditions": "CGS-21680 × PDE inhibitor", "method": "as §2"}, "EJM MM cell line": {"tested_on": "EJM MM cell line", "test": "Anti-proliferation assay (ATPLite, 72 h)", "format": "cell-based, human", "conditions": "CGS-21680 × PDE inhibitor", "method": "as §2"}, "ANBL6 MM cell line": {"tested_on": "ANBL6 MM cell line", "test": "Anti-proliferation assay (ATPLite, 72 h)", "format": "cell-based, human", "conditions": "CGS-21680 × PDE inhibitor", "method": "as §2"}, "MOLP-8 MM cell line": {"tested_on": "MOLP-8 MM cell line", "test": "Anti-proliferation assay (ATPLite, 72 h)", "format": "cell-based, human", "conditions": "CGS-21680 × PDE inhibitor", "method": "as §2"}, "[5]": {"tested_on": "human multiple myeloma cells (MM.1S)", "test": "Anti-proliferation assay (ATPLite, 72 h)", "format": "cell-based", "parameters": "key to synergy score / synergy (score), PDEi × HE-NECA: S = lnfX·lnfY·ΣIdata(Idata−ILoewe), volume over Loewe additivity", "in_short": "as §1"}},
  "data": [
    {"smiles": "O=C(Nc1c(Cl)cncc1Cl)c1ccc(OC(F)F)c(OCC2CC2)c1", "note": "[Roflumilast, 3-(cyclopropylmethoxy)-N-(3,5-dichloro-4-pyridinyl)-4-(difluoromethoxy)-benzamide]", "values": [
      {"measurement": "PDE inhibitors (specificity)", "setting": "[1]", "value": "Roflumilast (4)"},
      {"measurement": "synergy score", "setting": "[2]; in combination with adenosine receptor agonist CGS-21680, RPMI 8226", "value": 0.69},
      {"measurement": "synergy score", "setting": "[2]; in combination with adenosine receptor agonist HE-NECA, RPMI-8226", "value": 0.466},
      {"measurement": "synergy score", "setting": "[2]; in combination with adenosine receptor agonist regadenoson, RPMI 8226", "value": 1.12},
      {"measurement": "synergy score", "setting": "[3]; PDE inhibitor crossed with (S) ENBA, H929", "value": 1.77},
      {"measurement": "synergy score", "setting": "[3]; PDE inhibitor crossed with Chloro-IB-MECA, H929", "value": 1.16},
      {"measurement": "synergy score", "setting": "[3]; PDE inhibitor crossed with HE-NECA, H929", "value": 0.98},
      {"measurement": "synergy score", "setting": "[3]; in combination with adenosine receptor agonist CGS-21680, H929", "value": 3.71},
      {"measurement": "synergy score", "setting": "[3]; in combination with adenosine receptor agonist HE-NECA, H929", "value": 0.98},
      {"measurement": "synergy score", "setting": "[3]; in combination with adenosine receptor agonist regadenoson, H929", "value": 2.7},
      {"measurement": "synergy score", "setting": "[4]; in combination with adenosine receptor agonist CGS-21680, MM.1R", "value": 3.61},
      {"measurement": "synergy score", "setting": "[4]; in combination with adenosine receptor agonist regadenoson, MM.1R", "value": 5.83},
      {"measurement": "Induction of apoptosis", "setting": "patient CLL cells; Roflumilast 0.03 μM", "value": 17},
      {"measurement": "Induction of apoptosis", "setting": "patient CLL cells; Roflumilast 0.09 μM", "value": 26},
      {"measurement": "Induction of apoptosis", "setting": "patient CLL cells; Roflumilast 0.27 μM", "value": 32},
      {"measurement": "synergy score", "setting": "INA-6 MM cell line", "value": 2.62},
      {"measurement": "synergy score", "setting": "OPM2 MM cell line", "value": 0.29},
      {"measurement": "synergy score", "setting": "KSM-12-PE MM cell line", "value": 0.27},
      {"measurement": "synergy score", "setting": "EJM MM cell line", "value": 1.06},
      {"measurement": "synergy score", "setting": "ANBL6 MM cell line", "value": 3.73},
      {"measurement": "synergy score", "setting": "MOLP-8 MM cell line", "value": 3.44},
      {"measurement": "inhibition at 0.0631 µM", "setting": "[5]; Homo sapiens, MM1.S, Roflumilast 0.0631 μM, Cl-IB-MECA conc. (μM), read-out: Percent inhibition of ATP in MM.1S cells", "value": -7.1, "unit": "%"},
      {"measurement": "inhibition at 0.126 µM", "setting": "[5]; Homo sapiens, MM1.S, Roflumilast 0.126 μM, Cl-IB-MECA conc. (μM), read-out: Percent inhibition of ATP in MM.1S cells", "value": 1.5, "unit": "%"},
      {"measurement": "inhibition at 0.252 µM", "setting": "[5]; Homo sapiens, MM1.S, Roflumilast 0.252 μM, Cl-IB-MECA conc. (μM), read-out: Percent inhibition of ATP in MM.1S cells", "value": -3.5, "unit": "%"},
      {"measurement": "inhibition at 0.505 µM", "setting": "[5]; Homo sapiens, MM1.S, Roflumilast 0.505 μM, Cl-IB-MECA conc. (μM), read-out: Percent inhibition of ATP in MM.1S cells", "value": 11, "unit": "%"},
      {"measurement": "inhibition at 1.01 µM", "setting": "[5]; Homo sapiens, MM1.S, Roflumilast 1.01 μM, Cl-IB-MECA conc. (μM), read-out: Percent inhibition of ATP in MM.1S cells", "value": 7.5, "unit": "%"},
      {"measurement": "synergy score", "setting": "[5]; PDE inhibitor crossed with (S) ENBA, MM.1S", "value": 2.19},
      {"measurement": "synergy score", "setting": "[5]; PDE inhibitor crossed with Chloro-IB-MECA, MM.1S", "value": 2.12},
      {"measurement": "synergy score", "setting": "[5]; PDE inhibitor crossed with HE-NECA, MM.1S", "value": 2},
      {"measurement": "synergy score", "setting": "[5]; in combination with adenosine receptor agonist CGS-21680, MM.1S", "value": 3.82},
      {"measurement": "synergy score", "setting": "[5]; in combination with adenosine receptor agonist HE-NECA, MM.1S", "value": 2},
      {"measurement": "synergy score", "setting": "[5]; in combination with adenosine receptor agonist regadenoson, MM.1S", "value": 3.56}
    ]}
  ]
}
